In patent US4218460A, “Nitroimidazoles” (BASF Aktiengesellschaft, priority 1978, dated 1980):
In brackets after ≈: the same amount, converted by molar mass.

What was measured:
[1] = system: Entamoeba histolytica; assay: Entamoeba histolytica in vitro tube-dilution test; type: cell-based; settings: Entamoeba histolytica PN and Q strains, read-out: minimum inhibition concentration
Protocol: 4. Entamoeba histolytica (tube-dilution test)
The PN and Q strains were tested.
The minimum inhibition concentrations were as follows:
The experiments were carried out in vitro using the quantitative tube-dilution test described by P. Klein, Bakteriologische Grundlagen der chemotherapeutischen Laboratoriumspraxis, Springer-Verlag, Berlin-Goettingen-Heidelberg, 1957.

[2] = system: Trypanosoma gambiense; assay: Trypanosoma gambiense infection of mouse; type: in vivo, mouse (NMRI strains)
Protocol: (§1) The action against infections caused by Trypanosomas and Entamoeba histolytica can be illustrated on the mouse (NMRI strains) using methods described in Handbuch fur experimentelle Pharmakologie, Erganzungswerk 16, Erzeugung von Krankheitszustanden durch das Experiment, Part 9, pages 150 to 292, Springer-Verlag, Berlin-Goettingen-Heidelberg, 1964.
(§2) Various dosages were investigated. The curing of the infection was determined microscopically and in a culture. There was also post-observation for 25 days after treatment was discontinued in order to establish whether there was any recidivation
2. Trypanosoma gambiense--infection of mouse
(§3) Same method as in the case of Trypanosoma brucei

[3] = system: Trypanosoma brucei; assay: Trypanosoma brucei infection of the mouse; type: in vivo, mouse (NMRI strains); settings: for recidivation: 25 days post-observation
Protocol: as §1
1. Trypanosoma brucei--infections of the mouse
as §2

[4] = system: Trypanosoma congolense; assay: Trypanosoma congolense infection of mouse; type: in vivo, mouse (NMRI strains)
Protocol: as §1, §2
3. Trypanosoma congolense--infection of mouse
as §3

[5] = system: Trichomonas; assay: Trichomonas vaginal infection of mice; type: in vivo; settings: po, read-out: cure; for responders at 50 mg/kg: 5×50 mg/kg perorally; for responders at 25 mg/kg: 5×25 mg/kg perorally
Protocol: 5. Trichomonas vaginal--infection of mice Various dosages were investigated. The curing of the infection was determined microscopically and in a culture.

[6] = system: Trichomonas vaginalis; assay: Minimum inhibition concentration on Trichomonas vaginalis, in vitro quantitative tube-dilution test; type: cell-based; settings: for Relative effectiveness Metronidazol = 1.0: MIC on Trichomonas vaginalis relative to Metronidazol = 1.0; for MIC: Trichomonas vaginalis, in vitro tube-dilution test
Protocol: Minimum inhibition concentrations (MIC) on Trichomonas
^1 The tests were carried out in vitro using the quantitative
tubedilutiom test described by P. Klein, Bakteriologische Geundlagen der
chemotherapeutischen Laboratoriumspraxis, SpringerVerlag
BerlinCoettingen-Heidelberg, 1957.

[7] = LD 50 toxicity on mice, oral; settings: mouse, in vivo, NMRI strain, a week's observation period

MIC [1]	MIC [6]	SMILES	acute action ([2]; 11×50 mg/kg perorally)	acute action ([3]; 11×50 mg/kg perorally)	acute action ([4]; 11×50 mg/kg perorally)	responders at 50 mg/kg [5]	Relative effectiveness Metronidazol = 1.0 [6]	responders at 25 mg/kg [5]	LD50 at 168 h [7]	also measured
< 0.01 µg/mL	< 0.01 µg/mL	Cn1c([N+](=O)[O-])cnc1C=Cc1nncs1 [Example 6, 2-[2-(1-methyl-5-nitroimidazol-2-yl)-vinyl]-1,3,4-thiadiazole]	no action	no action	no action	50%	> 10.0			
< 0.01 µg/mL	0.01 µg/mL (≈ 0.0318 µM)	Cn1c([N+](=O)[O-])cnc1C=Cc1nnc(-c2ccncc2)s1 [Example 5, 2-(4-pyridyl)-5-[2-(1-methyl-5-nitroimidazol-2-yl)-vinyl]-1,3,4-thiadiazole]	no action	no action	no action		10.0	100%		
		Cc1ccc(C(=O)Nc2ccc(S(=O)(=O)O)c3cc(S(=O)(=O)O)cc(S(=O)(=O)O)c23)cc1NC(=O)c1cccc(NC(=O)Nc2cccc(C(=O)Nc3cc(C(=O)Nc4ccc(S(=O)(=O)O)c5cc(S(=O)(=O)O)cc(S(=O)(=O)O)c45)ccc3C)c2)c1 [Suramin, reference compound]								acute action ([2]; 7×50 mg/kg intraperitoneally): 50%; recidivation ([2]; 7×50 kg/mg intraperitoneally): no recidivation; acute action ([3]; 7×50 mg/kg intraperitoneally): 80%; recidivation ([3]; 7×50 mg/kg intraperitoneally): no recidivation; acute action ([4]; 7×50 mg/kg intraperitoneally): 70%; recidivation ([4]; 7×50 mg/kg intraperitoneally): no recidivation
0.1 µg/mL (≈ 0.584 µM)	0.1 µg/mL (≈ 0.584 µM)	Cc1ncc([N+](=O)[O-])n1CCO [Metronidazol, reference compound]		no action			1.0	100%		
	0.1 µg/mL (≈ 0.404 µM)	CCS(=O)(=O)CCn1c([N+](=O)[O-])cnc1C [Tinidazol, reference compound]					1.0	100%		action ([3]; 22×50 mg/kg perorally): no action
0.1 µg/mL (≈ 0.319 µM)	0.01 µg/mL (≈ 0.0319 µM)	Cn1c([N+](=O)[O-])cnc1C=Cc1nnc(-c2ccccc2)s1 [Example 2, 2-phenyl-5-[2-(1-methyl-5-nitroimidazol-2-yl)-vinyl]-1,3,4-thiadiazole]	no action	no action	no action	10%	10.0			

SMILES	MIC [1]	MIC [6]	acute action ([2]; 11×50 mg/kg perorally)	acute action ([3]; 11×50 mg/kg perorally)	acute action ([4]; 11×50 mg/kg perorally)	responders at 50 mg/kg [5]	Relative effectiveness Metronidazol = 1.0 [6]	responders at 25 mg/kg [5]	LD50 at 168 h [7]	also measured
CCc1nnc(C=Cc2ncc([N+](=O)[O-])n2C)s1 [Example 7, 2-ethyl-5-[2-(1-methyl-5-nitroimidazol-2-yl)-vinyl]-1,3,4-thiadiazole]	< 0.01 µg/mL	< 0.01 µg/mL	no action		no action	100%	> 10.0		> 1500 mg/kg	acute action ([3]; 11×50 mg/kg (route not given)): 100%; recidivation ([3]; 11×50 mg/kg (route not given)): 30%
CCc1nnc(C(C)=Cc2ncc([N+](=O)[O-])n2C)s1 [Example 10, 2-ethyl-5-[1-methyl-2-(1-methyl-5-nitroimidazol-2-yl)-vinyl]-1,3,4-thiadiazole]	< 0.01 µg/mL	< 0.01 µg/mL	100%	100%	100%		> 10.0	100%	> 1500 mg/kg	recidivation ([2]; 11×50 mg/kg perorally): 60%; recidivation ([3]; 11×50 mg/kg perorally): no recidivation; recidivation ([4]; 11×50 mg/kg perorally): no recidication
Cc1nnc(C=Cc2ncc([N+](=O)[O-])n2C)s1 [Example 1, 2-methyl-5-[2-(1-methyl-5-nitroimidazol-2-yl)-vinyl]-1,3,4-thiadiazole]	< 0.01 µg/mL	0.02 µg/mL (≈ 0.0796 µM)	100%	100%	100%		5.0	100%	> 1500 mg/kg	recidivation ([2]; 11×50 mg/kg perorally): 80%; recidivation ([3]; 11×50 mg/kg perorally): 70%; no recidivation (so in the source) ([4]; 11×50 mg/kg perorally): 20%
